This assay concerns the target acetylcholinesterase (Homo sapiens, UniProt P22303). In words: Determination of inhibitory activity against acetylcholinesterase (photometric method of Ellman et al.). To be noted: Relative ratio = IC50 (molar) of Tacrine / IC50 (molar) of test compound; IC50 = concentration of drug which inhibits 50% level of control. In kind it is biochemical. How it is done: Determination of inhibitory activity against acetylcholinesterase
The inhibitory activity against acetylchalinesterase of the compounds provided with the present invention was determined by the photometric methods described in Ellman et al., Biochemical Pharmacology, Vol. 7, p.

Data on eleven compounds can be found in patent publication EP0268871A1, “Quinoline derivatives” (priority 1986, dated 1988).

Molecules are shown by their SMILES.

acetylcholinesterase, sequence (P22303 32-614): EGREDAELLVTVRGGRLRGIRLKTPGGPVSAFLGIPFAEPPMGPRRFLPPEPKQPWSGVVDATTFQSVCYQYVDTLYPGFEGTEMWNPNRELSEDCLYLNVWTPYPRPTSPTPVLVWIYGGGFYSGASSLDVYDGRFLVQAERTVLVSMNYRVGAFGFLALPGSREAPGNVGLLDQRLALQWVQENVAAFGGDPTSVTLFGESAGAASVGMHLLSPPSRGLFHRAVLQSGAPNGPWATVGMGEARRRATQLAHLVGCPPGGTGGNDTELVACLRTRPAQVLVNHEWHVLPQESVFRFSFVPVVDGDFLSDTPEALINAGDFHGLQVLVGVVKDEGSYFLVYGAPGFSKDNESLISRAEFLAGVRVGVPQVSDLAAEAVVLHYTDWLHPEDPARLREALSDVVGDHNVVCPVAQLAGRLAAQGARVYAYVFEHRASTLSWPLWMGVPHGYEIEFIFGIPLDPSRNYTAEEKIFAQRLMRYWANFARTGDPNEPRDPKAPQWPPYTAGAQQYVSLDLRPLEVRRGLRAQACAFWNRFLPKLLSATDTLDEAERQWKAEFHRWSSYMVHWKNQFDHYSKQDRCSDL

As to `Nc1c2c(nc3cccc(F)c13)CCCC2` [compound 157], the “Acetylcholinesterase Inhibition (reative ratio*)” value is 3.60.
As for `Nc1c2c(nc3cc(Cl)ccc13)C1C=CC2CC1` (centres unmarked) [Example 94], the “Acetylcholinesterase Inhibition (reative ratio*)” value came to 2.22.
For the compound `Nc1c2c(nc3c(F)cccc13)CCCCC2` [compound 156], the “Acetylcholinesterase Inhibition (reative ratio*)” value amounted to 2.50.
`Cc1cccc2nc3c(c(N)c12)CC(C)C3` (centres unmarked) [Example 14]: the “Acetylcholinesterase Inhibition (reative ratio*)” value is listed as 1.27.
Consider `Nc1c2c(nc3cccc(Cl)c13)CSCC2` [compound 149], for which the “Acetylcholinesterase Inhibition (reative ratio*)” value amounted to 4.12.
As to `Nc1c2c(nc3cc(C(F)(F)F)ccc13)CCCC2` [compound 36], the “Acetylcholinesterase Inhibition (reative ratio*)” value amounted to 1.15.
As for `Nc1c2c(nc3cc(F)ccc13)CCCC2` [Example 2, 9-amino-6-fluoro-1,2,3,4-tetrahydroacridine], the “Acetylcholinesterase Inhibition (reative ratio*)” value is 2.53.
On to `Nc1c2c(nc3cccc(F)c13)CCC2` [Example 6], for which the “Acetylcholinesterase Inhibition (reative ratio*)” value stood at 1.75.
In the case of `Nc1c2c(nc3cc(F)c(F)cc13)CCCCC2` [compound 38], the “Acetylcholinesterase Inhibition (reative ratio*)” value is listed as 2.04.
In the case of `Nc1c2c(nc3cccc(F)c13)CSCC2` [compound 118], the “Acetylcholinesterase Inhibition (reative ratio*)” value is 3.13.
For `Cc1cccc2nc3c(c(N)c12)CSCC3` [compound 112], the “Acetylcholinesterase Inhibition (reative ratio*)” value was found to be 1.30.
